Measurements from patent publication US20240002405A1, “ANTIMICROBIAL COMPOUNDS, SYNTHESIS METHODS, AND USES THEREOF” (Ankh Life Sciences Limited, priority 2022, published 2024).
≈ marks a conversion by molar mass, not a printed value. Counter-ions that a name gives are not always drawn. Like-named read-outs stand apart in the source and are kept apart here. Blank lines part the entries; values can stand above or below the compound they belong to.

Columns and labels:
[1] = system: gram positive and negative bacteria; assay: Antibacterial testing against gram positive and negative bacteria; format: cell-based
Method: In addition to the harmaline dimers compounds, other bicyclic indole compounds (203, 233, 476/6 and 504/6,) were also tested against gram positive and negative bacteria. Particularly, the indole ethyl urea molecules 203, 233 and the tryptamide dimer molecules 476/6, 504/6, as shown below, were tested.

E. coli (ATCC 25922) = assay: Broth microdilution MIC assay, E. coli; details: for concentration at which activity is shown / MIC (bacterial growth inhibition) / concentration showing ~50% growth inhibition: E. coli; for MIC: Escherichia coli, ATCC25922, read-out: MIC (bacterial growth inhibition), E. coli
S. aureus (ATCC 29213) [2] = assay: Broth microdilution MIC assay, S. aureus; details: for concentration at which activity is shown / MIC (bacterial growth inhibition): S. aureus; for MIC: Staphylococcus aureus
[3] = system: Candida albicans (ATCC 18804); assay: Antifungal broth microdilution MIC assay; format: cell-based; details: for MIC: Candida albicans, ATCC18804, C. albicans, read-out: MIC (antifungal growth inhibition)
Method: Synthesized compounds were tested for antifungal activity towards the fungus strain, Candida albicans. […] Different concentrations of the compounds were tested for the exact same number of fungi, and the growth is monitored with time. MIC was determined by using the broth microdilution assay. Fungus strain, C. albicans was purchased from ATCC (ID: 18804) for the studies. […] This solution was used to make a working solution by preparing a 1:50 dilution, followed by a 1:20 dilution, with RPMI 1640 medium to obtain 2× test inoculum. The 2× inoculum is diluted 1:1 to achieve the final inoculum size (0.5×10^3 to 2.5×10^3 cells per mL). RPMI 1640 medium was used with L-glutamine and phenol red as a pH indicator but without bicarbonate and a glucose concentration of 0.2%. […] All plates were then read visually under normal laboratory lighting using a mirror viewer. Wells were scored for the growth compared to that of the drug free control well. Plates were read at 530 nm with subtraction of the blank from the reading of each well. Turbidity (OD) increases as the fungus grows over time.

S. aureus (ATCC 29213) [4] = assay: Minimum bactericidal concentration (MBC) assay, S. aureus; format: cell-based; details: Staphylococcus aureus, ATCC29213, 24 h; S. aureus; read-out: MBC (kills bacteria)
Method: (§1) (f) Determination of MBC: MBC was determined by sampling all the macroscopically clear wells. Before sampling, the wells were gently mixed by flushing them with a pipette, and a 5 μL was removed and placed on an agar plate suitable for the growth of the microbe being tested. The agar plate was divided into three parts to test three trials of a single concentration. The sample was allowed to be absorbed into the agar for ˜30 minutes. The plates were then incubated for 24 hours at 37° C. After incubation, the plates were examined to determine the compound concentration at which 99.9% killing was achieved.

E. faecalis (ATCC 29212) [5] = assay: Minimum bactericidal concentration (MBC) assay, E. faecalis; format: cell-based, Enterococcus faecalis
Method: as §1

E. faecalis (ATCC 29212) [6] = assay: Broth microdilution MIC assay, E. faecalis; details: Enterococcus faecalis, ATCC29212, read-out: MIC (bacterial growth inhibition)
[7] = system: VREF: E. faecalis resistant to vancomycin (ATCC 51299); assay: Broth microdilution MIC assay, VREF; details: Enterococcus faecalis, ATCC51299, read-out: MIC (bacterial growth inhibition)
MRSA (ATCC 43300) = assay: Minimum bactericidal concentration (MBC) assay, MRSA; format: cell-based; details: Staphylococcus aureus, MRSA
Method: as §1

[8] = system: engineered Salmonella typhimurium strain (umuC, β-galactosidase); details: S9 not stated
[9] = system: MRSA: S. aureus resistant to methicillin and oxacillin (ATCC 43300); assay: Broth microdilution MIC assay, MRSA; details: for MIC: Staphylococcus aureus, ATCC43300|MRSA, read-out: MIC (bacterial growth inhibition)
[10] = ATCC29213, read-out: MIC (bacterial growth inhibition), S. aureus, time not given

MIC (S. aureus (ATCC 29213) [2]; [10]): 25 µg/mL (≈ 63.1 µM)
MIC ([3]; after 48 hours of incubation): 50 µg/mL (≈ 126 µM)
Structure (SMILES): COc1ccc2c3c([nH]c2c1)C(/C=C/c1cc(Br)ccc1N)=NCC3 [GK395]
concentration showing ~50% growth inhibition (E. coli (ATCC 25922)): 3.5 µg/mL

MIC (bacterial growth inhibition) (E. coli (ATCC 25922)): 6.25 µg/mL (≈ 10.4 µM)
MIC (E. coli (ATCC 25922)): 12.5 µg/mL (≈ 20.8 µM)
MIC (bacterial growth inhibition) (S. aureus (ATCC 29213) [2]; time not given): 3.5 µg/mL (≈ 5.83 µM)
MIC (S. aureus (ATCC 29213) [2]; [10]): 3.1 µg/mL (≈ 5.16 µM)
MIC [9]: 2.75 µg/mL (≈ 4.58 µM)
Structure (SMILES): COc1ccc2c3c([nH]c2c1)C(CC(CC1=NCCc2c1[nH]c1cc(OC)ccc21)c1c[nH]c2cccc([N+](=O)[O-])c12)=NCC3 [GK600]

MIC (bacterial growth inhibition) (E. coli (ATCC 25922)): no activity was observed
MIC (S. aureus (ATCC 29213) [2]; ATCC29213, 24 h, read-out: MIC (bacterial growth inhibition), S. aureus, up to 24 hours): 64.7 µg/mL (≈ 125 µM)
MIC ([9]; 24 h): 64.7 µg/mL (≈ 125 µM)
Structure (SMILES): COc1ccc2c3c([nH]c2c1)C(CC(CC1=NCCc2c1[nH]c1cc(OC)ccc21)c1ccncc1)=NCC3 [GK517.4]
MBC (S. aureus (ATCC 29213) [4]): 64.7 µg/mL (≈ 125 µM)
MBC (MRSA (ATCC 43300); read-out: MBC): > 129 µg/mL
MBC (MRSA (ATCC 43300); read-out: MRSA-MBC): > 250 µM

Continued, compound first:

Structure (SMILES): NC(=O)NCCc1c[nH]c2ccccc12 [Compound 203]
bacteriostatic/bactericidal activity [1]: no bacteriostatic/bactericidal activity observed

Structure (SMILES): COc1ccc2c3c([nH]c2c1)C(CC(CC1=NCCc2c1[nH]c1cc(OC)ccc21)c1c[nH]c2ccc(C(=O)O)cc12)=NCC3 [GK599]
concentration at which activity is shown (E. coli (ATCC 25922)): 100 µg/mL
concentration at which activity is shown (S. aureus (ATCC 29213) [2]): 6.25 µg/mL

Structure (SMILES): COc1ccc2c3c([nH]c2c1)C(/C=C/c1ccccc1N)=NCC3 [GK317]
MIC (bacterial growth inhibition) (E. coli (ATCC 25922)): didn't show any activity
MIC (S. aureus (ATCC 29213) [2]; [10]): 100 µg/mL (≈ 315 µM)

Structure (SMILES): COc1ccc2c3c([nH]c2c1)C(CC(CC1=NCCc2c1[nH]c1cc(OC)ccc21)c1c[nH]c2ccc(C#N)cc12)=NCC3 [GK580, 3-(1,3-bis(7-methoxy-4,9-dihydro-3H-pyrido[3,4-b]indol-1-yl)propan-2-yl)-1H-indole-5-carbonitrile]
MBC (S. aureus (ATCC 29213) [4]): 11 µg/mL (≈ 18.9 µM)
MBC (kills bacteria) (E. faecalis (ATCC 29212) [5]): > 88 µg/mL
MIC (E. faecalis (ATCC 29212) [6]): 44 µg/mL (≈ 75.8 µM)
MIC [7]: > 88 µg/mL
MIC (E. coli (ATCC 25922)): 12.5 µg/mL (≈ 21.5 µM)
MIC (bacterial growth inhibition) (S. aureus (ATCC 29213) [2]; time not given): 3.5 µg/mL (≈ 6.03 µM)
MIC (S. aureus (ATCC 29213) [2]; [10]): 5.5 µg/mL (≈ 9.47 µM)
MBC (MRSA (ATCC 43300); read-out: MBC): 7 µg/mL
genotoxic concentration (no genotoxicity up to) [8]: > 30 µg/mL
MIC [9]: 3.5 µg/mL (≈ 6.03 µM)
MIC ([3]; after 24 hours of incubation): 12.2 µg/mL (≈ 21.1 µM)
MIC ([3]; after 48 hours of incubation): 12.2 µg/mL (≈ 21.1 µM)
concentration inhibiting fungal growth ([3]; time not stated): 12.5 µg/mL

Structure (SMILES): COc1ccc2c3c([nH]c2c1)C(/C=C/c1cc(Cl)ccc1N)=NCC3 [GK350]
concentration showing ~50% growth inhibition (E. coli (ATCC 25922)): 1.5 µg/mL
MIC (S. aureus (ATCC 29213) [2]; [10]): 25 µg/mL (≈ 71.1 µM)

Structure (SMILES): COc1ccc2c3c([nH]c2c1)C(CC(CC1=NCCc2c1[nH]c1cc(OC)ccc21)c1c[nH]c2ccc(C(=O)O)cc12)=NCC3 [GK599.HCl]
concentration at which activity is shown (E. coli (ATCC 25922)): 50 µg/mL
concentration at which activity is shown (S. aureus (ATCC 29213) [2]): 12.5 µg/mL
concentration at which activity is shown ([9]; MRSA): 12.5 µg/mL

Structure (SMILES): COc1ccc2c3c([nH]c2c1)C(CC(CC1=NCCc2c1[nH]c1cc(OC)ccc21)C1CC1)=NCC3 [GK480]
concentration at which activity is shown (E. coli (ATCC 25922)): 50 µg/mL
concentration at which activity is shown (S. aureus (ATCC 29213) [2]): 3.25 µg/mL
